# Source: patent US20150335670A1, “Medical applications of Notoginsenoside Fc” (SHANGHAI UNIVERSITY OF TRADITIONAL CHINESE MEDICINE, priority 2013, published 2015)
# Values joined by “and” are separate entries in the source; they are usually repeats but may differ in a detail not shown here. Equal entries are not always repeated.
# Assays:
# platelet = test: In vitro platelet aggregation assay (ADP-induced, nephelometry); type: cell-based, rat
# Method: 2.1.1 In vitro platelet aggregation assay: blood samples were placed in a centrifuge tube pre-coated with sodium citrate and centrifuged at 100 g for 5 min. The supernatant was collected and designated as rich platelet (PRP). After addition of prostacyclin (2 μg/ml), PRP was centrifuged at 700 g for 5 min and washed twice with 0.9% saline. The washed platelets were re-suspended in Tyrode buffer and diluted at a density of 4×10^8 cells/ml for further utilization. Platelet aggregation assay was provided according to a nephelometry method: platelet plasma was placed in cuvette; after addition of a inducing agent (ADP: 5-adenosine diphosphate disodium salt: 1×10^−4 mol/L), the platelet plasma was stirred with magnetic particles, wherein platelet was gradually aggregated, plasma turbidity was reduced, and transmittance was increased. Changes were recorded for drawing a dynamic curve of platelet aggregation. Aggregation rate and transmittance for PRP were regarded as 0; aggregation rate and transmittance of suspension were regarded as 100%. A platelet aggregation instrument was used for automatic measurement, recording, and drawing the platelet aggregation curve. For judging inhibiting or promoting of aggregation, it was mainly depending on whether synergy or antagonism happened with the inducing agent; wherein synergy was to promote platelet aggregation, antagonism was to inhibit platelet aggregation.
# Blank control group: 0.9% physiological saline (NS).
# Model group: adenosine diphosphate (ADP) (10 mM).
# Positive control group: clopidogrel (5 mM).
# Treatment groups: six rats for each group, Fc dissolved in double distilled water (prepared with different concentrations).
# platelet thrombus = test: Whole animal thrombogenesis assay (extracorporeal circulation model, thrombus weight); type: in vivo, rat; conditions: rats, 8.1 mg/kg intravenous, extracorporeal circulation started 5 min later, 15 min, blank control 37.2 mg
# Description: 2.1.2 Whole animal thrombogenesis assay: when arterial blood platelets contact a rough surface of a wire, the platelets are adhered to the wire and form platelet thrombus on a surface thereof. When platelet adhesion and aggregation function is suppressed, thrombus is light. Therefore, thrombus weight can measure platelet adhesion and aggregation functions.
# Referring to FIG. 3, effect of the notoginsenoside Fc on the platelet aggregation function is illustrated. […] In the extracorporeal circulation model, the rats were intravenous administered with Fc at dose of 8.1 mg/kg. Five minutes later, the extracorporeal circulation was initiated and stopped after fifteen minutes. The thrombus formed on the thread was weighed. Significant difference was found between the blank control group and the Fc treatment group (**P<0.01).
# rat tail bleeding = test: Bleeding time assay (rat tail transection); type: in vivo; conditions: rats; vs control
# Description: 2.1.3.1 Bleeding time assay: rat tail was transected 0.5 cm from the tip to induce bleeding. And the bleeding time was defined as the time from the start of transection to bleeding cessation. The time at which the flow of blood ceased for 30 s was considered as bleeding cessation.
# rat plasma = test: Blood coagulation index APTT in rat plasma; type: biochemical
# Description: (§1) 2.1.3.2 Four indexes of blood coagulation: i) Prothrombin time (PT) mainly reflects extrinsic coagulation conditions. Its value is increased when the levels of coagulation factor IX and XI in plasma are reduced, which usually occurs in hemophilia, hemophilia B and factor XI deficiency patients. Conversely, the reduction of it is seen in hypercoagulable state, when the procoagulant substances get into blood and the activity of coagulation factors is increased. ii) Activated partial thromboplastin time (APTT) reflects mainly intrinsic coagulation conditions. Its value is changed under the similar condition as PT. iii) Thrombin time (TT) mainly reflects the abnormality in the conversion of fibrinogen into fibrin. Its value is elevated in DIC hyperfibrinolysis period, afibrinogenemia and hemoglobin hyperlipidemia, and when degradation products (FDPs) of blood fibrin are increased. iv) Fibrinogen (Fibrinogen, FIB) mainly reflects the content of fibrinogen in plasma. Generally, its concentration is elevated in acute myocardial infarction. The reduction of it is observed in DIC dissolution of low consumption of coagulation, primary fibrinolysis, severe hepatitis, hepatic cirrhosis.
# standard human plasma = test: Four indexes of blood coagulation (APTT, PT), human; type: biochemical; conditions: 80 μg/ml
# Description: Notoginsenoside Fc (molecular weight 1211.38, HPLC purity≧99%, from Institute of Chinese Materia Medica), clopidogrel (molecular weight 419.90, HPLC purity≧98%, from National Institutes for Drug Control), standard human plasma, reagents for measurement of four indexes of blood coagulation (from Siemens, Germany), and adenosine diphosphate (ADP) (from Sigma, USA).
# as §1, with “Generally, its concentration is elevated in acute myocardial infarction. The reduction of it is observed in DIC dissolution of low consumption of coagulation, primary fibrinolysis, severe hepatitis, hepatic cirrhosis.” left out
# [1] = test system: acute myocardial infarction in rats; test: Acute myocardial infarction in rats (coronary ligation, TTC staining, pathohistology); type: in vivo, rat; conditions: for myocardial infarction area (ischemic area %): individual animals
# Method: Model preparing method: 30 SD rats (Shanghai University of Traditional Chinese Medicine Experimental Animal Center), weight: 320-370 g; rat was treated with anesthesia with pentobarbital (35 mg/kg), supine fixing; neck midline incision, separating trachea, tracheotomy, inserting a breathing tube, adjusting a frequency and tidal volume of a ventilator; median sternotomy thoracotomy (3-4 intercostal), using thin surgical needle and line six for starting at a left atrial appendage, and ligation at pulmonary cone. Successful standard thereof was that: observing with naked eyes (anterior descending artery blood supply area was darken or pale). Chest was quickly closed. For the sham group, the line passed the left anterior descending coronary artery bypass without ligation.
# TTC staining: rat hearts were frozen at −20° C., and were taken out after being hard; the rat hearts were left-coronally excised into 5-6 pieces at a thickness of 3-4 mm. Then the rat hearts were placed in 0.5% TTC solution, and incubated at 37° C. for 15 min. The pieces were taken out and fixed in 4% formaldehyde solution.
# The hearts were cut according to two different colors and drained water with filter paper before weighing. Calculation formula was as follows: ischemic area (%)=[…]×100%. Meanwhile, the hearts were partly acquired for pathological analysis.
# Control group: six rats, administered with 0.9% physiological saline (NS) after surgery.
# Sham operation group: six rats, opening chest and passing line without ligation.
# Positive medicine group: six rats, administered with ticagrelor (4.1 mg/kg) after surgery.
# 4 mg/kg Fc treatment group: six rats, administered with Fc (4 mg/kg) after surgery.
# 12 mg/kg Fc treatment group: six rats, administered with Fc (12 mg/kg) after surgery.
smiles,measurement,setting,value
"CC(C)=CCC[C@](C)(O[C@@H]1O[C@H](CO[C@@H]2OC[C@@H](O)[C@H](O)[C@H]2O)[C@@H](O)[C@H](O)[C@H]1O)[C@H]1CC[C@]2(C)[C@@H]1[C@H](O)C[C@@H]1[C@@]3(C)CC[C@H](O[C@@H]4O[C@H](CO)[C@@H](O)[C@H](O)[C@H]4O[C@@H]4O[C@H](CO)[C@@H](O)[C@H](O)[C@H]4O[C@@H]4OC[C@@H](O)[C@H](O)[C@H]4O)C(C)(C)[C@@H]3CC[C@]12C [Notoginsenoside Fc, notoginsenoside Fc]",IC50,"platelet; ADP-induced, 0.1-40 μM, read-out: IC50 (inhibition of platelet aggregation)",13.5 µM
same,platelet aggregation rate,"platelet; ADP-induced, Fc 200 μM",25.8%
same,aggregation rate (%),"platelet; ADP-induced, dose 0.1 μM, listed as Fc",47.9%
same,aggregation rate (%),"platelet; ADP-induced, dose 0.1 μM, listed as notoginsenoside Fc",47.98%
same,aggregation rate (%),"platelet; ADP-induced, dose 10 μM",42.83%
same,aggregation rate (%),"platelet; ADP-induced, dose 20 μM",32.33%
same,aggregation rate (%),"platelet; ADP-induced, dose 30 μM",31.60%
same,aggregation rate (%),"platelet; ADP-induced, dose 40 μM, listed as Fc",28.1%
same,aggregation rate (%),"platelet; ADP-induced, dose 40 μM, listed as notoginsenoside Fc",28.13%
same,decreasing amplitude of platelet aggregation rate,platelet; from 0.1 μM to 40 μM,up to 19.8%
same,weight of thrombus (wet weight),platelet thrombus; listed as FC,28.2 mg
same,weight of thrombus (wet weight),platelet thrombus; listed as Fc,actively reduce thrombogenesis
same,rat tail bleeding time,rat tail bleeding,significantly prolonged
same,APTT Time,rat plasma; 5 μg/ml,19.20 s
same,APTT Time,"rat plasma; 5 μg/ml, listed as Fc",19 s
same,APTT Time,rat plasma; 10 μg/ml,20.31 s
same,APTT Time,rat plasma; 20 μg/ml,21.61 s
same,APTT Time,rat plasma; 80 μg/ml,28.25 s
same,APTT Time,rat plasma; 160 μg/ml,32.65 s
same,APTT Time,"rat plasma; 160 μg/ml, listed as Fc",32 s
same,difference in APTT,rat plasma; from 5 μg/ml to 160 μg/ml,13 s
same,APTT,standard human plasma; blank control 91 s,126 s
same,PT,standard human plasma; vs blank control,longer
same,myocardial infarction area (ischemic area %),[1]; Fc 4 mg/kg after surgery,17.27% and 22.31% and 22.8% and 19.05% and 19.74% and 16.88%
same,pathohistology of myocardium,"[1]; Fc 4 mg/kg, FIG. 12",arrangement of most of the myocardial cells was normal
same,myocardial infarction area (ischemic area %),[1]; Fc 12 mg/kg after surgery,reduced more myocardial infarction than the positive medicine group and 5.843% and 3.482% and 5.463% and 4.892% and 5.19% and 4.595%
same,pathohistology of myocardium,"[1]; Fc 12 mg/kg, FIG. 13",arrangement of the myocardial cells was almost normal
same,percentage of the infarcted area,"[1]; Fc 4 and 12 mg/kg, FIG. 8, vs control",significantly reduced
"CCCSc1nc(N[C@@H]2C[C@H]2c2ccc(F)c(F)c2)c2nnn([C@@H]3C[C@H](OCCO)[C@@H](O)[C@H]3O)c2n1 [ticagrelor, reference compound]",myocardial infarction area (ischemic area %),[1]; ticagrelor 4.1 mg/kg after surgery,15.15% and 17% and 13.85% and 14.24% and 16.69% and 16.94%
same,pathohistology of myocardium,"[1]; ticagrelor 4.1 mg/kg, FIG. 11",arrangement of myocardial cells was disordered in local area
